Measurements as given in patent US20060110456A1, “Method for biocidal and/or biostatic treatment and compositions therefor” (NATIONAL UNIVERSITY OF SINGAPORE, priority 2004, published 2006).
Where a name gives a salt, the structure may show the parent alone. Read-outs that look alike come from different tables or passages of the source.

How the values were obtained:
Type in all cases: cell-based, marine bacteria isolated from Singapore fouling communities
[1] = tested on: marine bacteria (ten strains); experiment: Bio-adhesion assay (crystal violet microplate); conditions: 50 μl of 125 μg ml^−1 drug + 200 μl bacteria, 2 hours
Outline: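 Ten marine bacterial strains (A600 0.6 in seawater) left to attach for 2 hours at 28° C on hydrophobic and hydrophilic polystyrene, with 50 μl of drug at 125 μg ml^−1 added. Adherent cells stained with crystal violet, dye extracted with desoxycholate, A590 read; significance by t-test, in duplicate.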

[2] = tested on: marine bacteria (ten strains); experiment: Bacteriostatic vs bacteriocidal activity from growth assay: absorbance and CFU counts; conditions: 50 μg ml^−1
Procedure: Bacteria strains (1, 4, 9, 14, 18, 20, 27, 28, 29, 30) representing a variety of morphological types were used.
For each well, […] of a 100 μg ml^−1 drug solution in sterile distilled water, was added to 45 μl of Marine Broth. Controls for growth consisted of 50 μl of sterile deionized water and 45 μl of marine broth. All wells used for growth studies were prepared in triplicate and inoculated with 5 μl of the bacterial suspension. Blanks consisting of the above volumes of pharmaceutical with Marine Broth and distilled water, were prepared in triplicate and inoculated with 5 μl of sterile seawater. Immediately after adding all the components to the wells for the growth studies, 10 μl was removed and used to inoculate plates of Marine Agar to determine colony-forming units (CFU). The absorbance (A600) of each well was read in the plate reader immediately.
The inoculated plates of Marine Agar were incubated overnight on a rotary shaker (150 rpm) at 30° C. inside a moistened airtight container. After incubation, the absorbance was read again and another 10 μl was removed and used to inoculate Marine Agar plates to determine CFU.
The difference in absorbance over 24 hours for each bacterial strain versus controls and treatments were plotted in FIGS. 3 to 6 for each of the four drugs. The data was analyzed using 1-tailed t-test.

[3] = tested on: marine bacteria (26 strains); experiment: Disk inhibition assay; conditions: for zone of inhibition at 25 µg/disc: 25 μg per disc; for zone of inhibition at 50 µg/disc: 50 μg per disc
Outline: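 Tablets or capsule powders suspended in sterile water at 2 mg ml^−1 and loaded onto disks; antibiotic discs (Amp, Ery, Str, Tet) served as comparison. Disks placed on swabbed lawns on Marine Agar, incubated overnight in the dark at 30° C. Zone of clearing diameter measured by calipers; three replicates on three occasions.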

Compound: CN1CCN(CCCN2c3ccccc3Sc3ccc(Cl)cc32)CC1 [PCZ, prochlorperazine maleate]
- Effect of drugs on adhesion of bacteria ([1]; strain 1 (Rhodovulum), hydrophobic surface (untreated polystyrene)): * (Significantly less adhesion observed: * p < 0.05)
- Effect of drugs on adhesion of bacteria ([1]; strain 4 (Bacillus), hydrophilic surface (tissue culture treated polystyrene)): * (Significantly less adhesion observed: * p < 0.05)
- Effect of drugs on adhesion of bacteria ([1]; strain 4 (Bacillus), hydrophobic surface (untreated polystyrene)): * (Significantly less adhesion observed: * p < 0.05)
- Effect of drugs on adhesion of bacteria ([1]; strain 9 (Bacillus), hydrophobic surface (untreated polystyrene)): * (Significantly less adhesion observed: * p < 0.05)
- Effect of drugs on adhesion of bacteria ([1]; strain 30, hydrophobic surface (untreated polystyrene)): * (Significantly less adhesion observed: * p < 0.05)
- Killing of bacteria (decrease in absorbance and CFU counts) [2]: strain 14 was not killed
- Growth assay: 24-hour change in absorbance for ten strains ([2]; strains 1, 4, 9, 14, 18, 20, 27, 28, 29, 30): only strain numbers 1 and 14 grew in the presence of PCZ
- Change in CFU count after 24 hours ([2]; strain 1 (Rhodovulum)): 0
- Inhibition of bacterial growth ([2]; strain 1 (Rhodovulum)): 0
- Result (bacteriostatic / bacteriocidal / no effect) ([2]; strain 1 (Rhodovulum)): no effect
- Inhibition of bacterial growth ([2]; strain 4 (Bacillus)): +++ (+++ denotes little or no growth, p < 0.001)
- Result (bacteriostatic / bacteriocidal / no effect) ([2]; strain 4 (Bacillus)): bacteriocidal
- Inhibition of bacterial growth ([2]; strain 9 (Bacillus)): +++ (+++ denotes little or no growth, p < 0.001)
- Result (bacteriostatic / bacteriocidal / no effect) ([2]; strain 9 (Bacillus)): bacteriocidal
- Change in CFU count after 24 hours ([2]; strain 14 (Vibrio)): 0
- Inhibition of bacterial growth ([2]; strain 14 (Vibrio)): 0
- Result (bacteriostatic / bacteriocidal / no effect) ([2]; strain 14 (Vibrio)): no effect
- Inhibition of bacterial growth ([2]; strain 18 (Microbacterium)): +++ (+++ denotes little or no growth, p < 0.001)
- Result (bacteriostatic / bacteriocidal / no effect) ([2]; strain 18 (Microbacterium)): bacteriostatic
- Inhibition of bacterial growth ([2]; strain 20): +++ (+++ denotes little or no growth, p < 0.001)
- Result (bacteriostatic / bacteriocidal / no effect) ([2]; strain 20): bacteriostatic
- Inhibition of bacterial growth ([2]; strain 27): +++ (+++ denotes little or no growth, p < 0.001)
- Result (bacteriostatic / bacteriocidal / no effect) ([2]; strain 27): bacteriocidal
- Inhibition of bacterial growth ([2]; strain 28): +++ (+++ denotes little or no growth, p < 0.001)
- Result (bacteriostatic / bacteriocidal / no effect) ([2]; strain 28): bacteriostatic
- Inhibition of bacterial growth ([2]; strain 29): +++ (+++ denotes little or no growth, p < 0.001)
- Result (bacteriostatic / bacteriocidal / no effect) ([2]; strain 29): bacteriocidal
- Inhibition of bacterial growth ([2]; strain 30): +++ (+++ denotes little or no growth, p < 0.001)
- Result (bacteriostatic / bacteriocidal / no effect) ([2]; strain 30): bacteriostatic
- Antibiotic activity against marine bacteria [3]: strongest activity
- Antibiotic activity against marine bacteria ([3]; crude rank, best (1) to worst (8)): 3
- zone of inhibition at 25 µg/disc ([3]; strain 1 (Rhodovulum)): < 5 mm
- zone of inhibition at 50 µg/disc ([3]; strain 1 (Rhodovulum)): < 5 mm
- zone of inhibition at 25 µg/disc ([3]; strain 2 (Erythrobacter)): < 5 mm
- zone of inhibition at 50 µg/disc ([3]; strain 2 (Erythrobacter)): < 5 mm
- zone of inhibition at 25 µg/disc ([3]; strain 3 (Erythrobacter)): 10 to 19 mm
- zone of inhibition at 50 µg/disc ([3]; strain 3 (Erythrobacter)): 10 to 19 mm
- zone of inhibition at 25 µg/disc ([3]; strain 4 (Bacillus)): 10 to 19 mm
- zone of inhibition at 50 µg/disc ([3]; strain 4 (Bacillus)): 10 to 19 mm
- zone of inhibition at 25 µg/disc ([3]; strain 6 (Vibrio)): < 5 mm
- zone of inhibition at 50 µg/disc ([3]; strain 6 (Vibrio)): 5 to 9 mm
- zone of inhibition at 25 µg/disc ([3]; strain 7 (Vibrio)): < 5 mm
- zone of inhibition at 50 µg/disc ([3]; strain 7 (Vibrio)): < 5 mm
- zone of inhibition at 25 µg/disc ([3]; strain 8 (Bacillus)): 10 to 19 mm
- zone of inhibition at 50 µg/disc ([3]; strain 8 (Bacillus)): 10 to 19 mm
- zone of inhibition at 25 µg/disc ([3]; strain 9 (Bacillus)): 10 to 19 mm
- zone of inhibition at 50 µg/disc ([3]; strain 9 (Bacillus)): 10 to 19 mm
- zone of inhibition at 25 µg/disc ([3]; strain 10 (Halobacillus)): 10 to 19 mm
- zone of inhibition at 50 µg/disc ([3]; strain 10 (Halobacillus)): 10 to 19 mm
- zone of inhibition at 25 µg/disc ([3]; strain 11 (Pseudomonas)): 10 to 19 mm
- zone of inhibition at 50 µg/disc ([3]; strain 11 (Pseudomonas)): 10 to 19 mm
- zone of inhibition at 25 µg/disc ([3]; strain 12 (Gordonia)): 10 to 19 mm
- zone of inhibition at 50 µg/disc ([3]; strain 12 (Gordonia)): 20 to 29 mm
- zone of inhibition at 25 µg/disc ([3]; strain 13 (Bacillus)): 10 to 19 mm
- zone of inhibition at 50 µg/disc ([3]; strain 13 (Bacillus)): 10 to 19 mm
- zone of inhibition at 25 µg/disc ([3]; strain 14 (Vibrio)): < 5 mm
- zone of inhibition at 50 µg/disc ([3]; strain 14 (Vibrio)): < 5 mm
- zone of inhibition at 25 µg/disc ([3]; strain 16 (Pseudoalteromonas)): < 5 mm
- zone of inhibition at 50 µg/disc ([3]; strain 16 (Pseudoalteromonas)): < 5 mm
- zone of inhibition at 25 µg/disc ([3]; strain 17 (Gordonia)): 10 to 19 mm
- zone of inhibition at 50 µg/disc ([3]; strain 17 (Gordonia)): 20 to 29 mm
- zone of inhibition at 25 µg/disc ([3]; strain 18 (Microbacterium)): 10 to 19 mm
- zone of inhibition at 50 µg/disc ([3]; strain 18 (Microbacterium)): 20 to 29 mm
- zone of inhibition at 25 µg/disc ([3]; strain 19 (Erythrobacter)): 10 to 19 mm
- zone of inhibition at 50 µg/disc ([3]; strain 19 (Erythrobacter)): 10 to 19 mm
- zone of inhibition at 25 µg/disc ([3]; strain 20): 10 to 19 mm
- zone of inhibition at 50 µg/disc ([3]; strain 20): 10 to 19 mm
- zone of inhibition at 25 µg/disc ([3]; strain 21): < 5 mm
- zone of inhibition at 50 µg/disc ([3]; strain 21): 10 to 19 mm
- zone of inhibition at 25 µg/disc ([3]; strain 22): 10 to 19 mm
- zone of inhibition at 50 µg/disc ([3]; strain 22): 10 to 19 mm
- zone of inhibition at 25 µg/disc ([3]; strain 24): 10 to 19 mm
- zone of inhibition at 50 µg/disc ([3]; strain 24): 10 to 19 mm
- zone of inhibition at 25 µg/disc ([3]; strain 26): 5 to 9 mm
- zone of inhibition at 50 µg/disc ([3]; strain 26): 10 to 19 mm
- zone of inhibition at 25 µg/disc ([3]; strain 27): 5 to 9 mm
- zone of inhibition at 50 µg/disc ([3]; strain 27): 10 to 19 mm
- zone of inhibition at 25 µg/disc ([3]; strain 28): 10 to 19 mm
- zone of inhibition at 50 µg/disc ([3]; strain 28): 10 to 19 mm
- zone of inhibition at 25 µg/disc ([3]; strain 29): 10 to 19 mm
- zone of inhibition at 50 µg/disc ([3]; strain 29): 10 to 19 mm
- zone of inhibition at 25 µg/disc ([3]; strain 30): 10 to 19 mm
- zone of inhibition at 50 µg/disc ([3]; strain 30): 10 to 19 mm
